Patent US20190125735A1, “INHIBITION OF P38 MAPK FOR THE TREATMENT OF CANCER” (Board of Regents, The University of Texas System, priority 2015, published 2019)

What was measured:
mouse BCR-ABL+ ALL cells = assay: BCR-ABL+ ALL model in NOD-SCID mice; format: in vivo; details: dasatinib 10 mg/kg oral, dexamethasone 1 mg/kg oral, SB203580 40 mg/kg i.p.; treatment from day 5
Excerpt: Leukemia progression was monitored by both bioluminescence imaging and quantifying mCherry+ ALL cells in peripheral blood samples by flow cytometry. […] Non-obese diabetic severe combined immunodeficient (NOD-SCID) mice were housed under high-barrier conditions in the Department of Veterinary Medicine and Surgery at MD Anderson. To generate the in vivo leukemia model, six to eight weeks old NOD-SCID mice were intravenously injected with luciferase- and mCherry-expressing BCR-ABL+ mouse leukemic cells (2×10^6 cells); engraftment of the transplanted cells was confirmed by bioluminescence imaging. For bioluminescence imaging, each mouse was intraperitoneally injected with D-Luciferin (150 mg/kg) and imaged using the IVIS Lumina imaging system (PerkinElmer).
Leukemia treatment started 5 days after transplantation. […] Treatment was continued until mice were succumbed to disease.
Bone marrow samples from the mice were harvested 4 days after initiating the drug treatment. […] Peripheral blood specimens were directly harvested from mice tail tips into PBS supplemented with ethylenediaminetetraacetic acid (2 mM). Red blood cells were subjected to lysis and were neutralized with 20% fetal bovine serum supplemented with alpha minimum essential medium. mCherry+ leukemic cells in the peripheral blood were detected by flow cytometry analysis after red blood cells were lysed.

FOXC2 = FOXC2 protein levels by immunoblotting in mammary cell lines; format: cell-based, human; details: series of cell lines, relative to vehicle, 24 h
Procedure: Immortalized human mammary epithelial (HMLE) cells expressing empty vector (pWZL), Snail, Twist, Goosecoid (GSC), or an activated form of TGFβ1, V12H-Ras-transformed HMLE (HMLER) and HMLER-FOXC2 cells were maintained as previously described (Elenbaas et al., 2001) For 4-hydroxy-tamoxifen (4-OHT) treatment, HMLE-Snail-ER or HMLE-Twist-ER cells were exposed to 20 nM 4-OHT for the indicated number of days. MCF7, MDA-MB-231 and SUM159 human breast cancer cells and the 4T1 mouse mammary carcinoma cells were cultured as described. Human non-tumorigenic MCF10A cells were cultured as described (Hollier et al., 2013), and treated with 2.5 ng/ml TGFβ1 for 3 days to elicit EMT.
(§1) Immunoblotting and immunofluorescence (Mani et al., 2008) were performed as previously described. Primary antibodies were as follows: β-actin (Sigma, St Louis, Mo., USA; A3853), mouse anti-human FOXC2 (Dr. Naoyuki Miura, Hamamatsu University School of Medicine, Japan), goat polyclonal anti-FOXC2 (Santa Cruz Biotechnology, Dallas, Tex., USA; sc-21397), p-p38 (Cell Signaling, Danvers, Mass., USA; 4511), p38 (Cell Signaling; 9211), E-cadherin (BD Biosciences, San Jose, Calif., USA; 61081), fibronectin (BD Biosciences; 610077), vimentin (Novus Biologicals, Littleton, Colo., USA; NB200-623), ZEB1 (Novus Biologicals; NBP1-05987), and HA (Covance, Princeton, N.J., USA; MMS-101P).

DU145 cells [1] = assay: FACS CD44/CD24 in DU145 cells; format: cell-based, human; details: DU145, 5 μM, 7 days
Procedure: Fluorescence-activated cell sorting (FACS) for PSAHi & PSA−/lo cells and CD44Hi & CD24Lo cells was performed as described previously (Hollier et al., 2013) using BD Influx sorter.

[2] = tested on: HMLE-Snail, HMLE-Twist, MDA-MB-231 and SUM159 cells; assay: FACS CD44high/CD24low of mesenchymal mammary cells; format: cell-based, human; details: relative to vehicle-treated cells
Procedure: (§2) It was next ascertained whether p38 inhibition compromises the maintenance of the established EMT phenotype.
Quantification of invadopodia (Eckert et al., 2011), scratch/wound-healing assays (Sarkar et al., 2015) fluorescence-activated cell sorting (FACS), and sphere-formation assays (Mani et al., 2008) were conducted as described previously.

[3] = tested on: HMLE-Snail, HMLE-Twist, MDA-MB-231 and SUM159 cells; assay: EMT marker immunoblotting in mesenchymal mammary cells; format: cell-based, human; details: relative to vehicle-treated cells
Procedure: as §2, §1

[4] = tested on: HMLE-Snail and HMLE-Twist cells; assay: Invadopodia formation, degradation of FITC-conjugated gelatin; format: cell-based, human; details: within 16 h, vs vehicle-treated cells
Procedure: FIGS. 15A-15L: p38 inhibition compromises the acquisition and maintenance of EMT and stem cell properties in vitro. […] Cells were harvested and the corresponding lysates were analyzed by immunoblotting for FOXC2, E-cadherin and mesenchymal markers. β-actin was used as a loading control. […] Cells were harvested at the indicated timepoints and the corresponding lysates were analyzed by immunoblotting for FOXC2, E-cadherin and mesenchymal markers. β-actin was used as a loading control. […] One thousand cells were seeded per well in ultra-low attachment plates and cultured for 7-10 days. Spheres with a diameter greater than 75 μm were counted. The data are reported as the number of spheres formed/1000 seeded cells±SEM. […] Data are presented as mean±SEM. […] The corresponding lysates were analyzed by immunoblotting for FOXC2, E-cadherin and mesenchymal markers. β-actin was used as a loading control. (F) The sphere-forming efficiency of 4-OHT-treated HMLE-Twist-ER cells, transduced with control shRNA (shControl) or p38 shRNA (shp38), was determined. […] (H) The sphere-forming efficiency of the indicated cells was determined in the presence of vehicle or SB203580. […] (J) The relative wound closure by the indicated cells, treated with vehicle or SB203580, was measured by image analysis and represented in a graphical format. […] Degradation of FITC-gelatin was quantified by image analysis. n=150 cells/sample. […]

DU145 cells [5] = assay: Tumorsphere assay, DU145 cells; format: cell-based, human; details: DU145, SB203580 5 μM, 7 days
Procedure: Cell lines: Authenticated LNCaP, DU145, and PC3 cells were procured from ATCC and cultured in RPMI with 10% fetal bovine serum (FBS) with penicillin/streptomycin. Cells overexpressing EMT transcription factors and shRNA were also cultured in the same media. HEK293T cells were cultured in DMEM with 10% FBS and penicillin/streptomycin. All cell lines used for this study were recently confirmed negative for mycoplasma contamination.
Immunoblotting, Immunofluorescence, RTPCR, wound healing- and tumorsphere assays were performed as previously described (Sarkar et al., 2015). Cell viability (MTS) was assessed using the CellTiter96 Aqueous One-Solution Cell Proliferation Assay kit (Promega).

BCR-ABL+ mouse ALL cells = details: MSC co-culture
Procedure: Leukemic cell apoptosis was analyzed by flow cytometry using BD LSRFortessa or Accuri C6 flow cytometer (BD Biosciences) after the cells were stained with Annexin V (BD Biosciences, San Jose, Calif.). Data were analyzed by FlowJo software (Ashland, Oreg.).

## C[S+]([O-])c1ccc(-c2nc(-c3ccc(F)cc3)c(-c3ccncc3)[nH]2)cc1 (centres unmarked) [SB203580, 4-(4-Fluorophenyl)-2-(4-methylsulfinylphenyl)-5-(4-pyridyl) 1H-imidazole]
Mouse BCR-ABL+ ALL cells
  Leukemia progression and survival (therapeutic efficacy): did not slow leukemia progression or prolong survival
FOXC2
  FOXC2 protein levels: consistent and striking decrease in FOXC2 protein levels
DU145 cells [1]
  CD44^hi/CD24^lo fraction: significant reduction
[2]
  Percentage of cells displaying the CD44^high/CD24^low antigenic profile: substantially reduced
[3]
  Expression of EMT markers: altered the expression of EMT markers
[4]
  Degradation of underlying extracellular matrix (FITC-gelatin): failed to do so to the same degree
DU145 cells [5]
  Tumorsphere formation: significant reduction
BCR-ABL+ mouse ALL cells
  Apoptosis of leukemic cells: did not affect proliferation or apoptosis of leukemic cells
